Results as given in BindingDB's records for doi:10.1021/jm990447m (Metabasis Therapeutics, 2000).

Assay: Evaluated for the inhibition of porcine heart or human L-type Adenosine 5'-monophosphate deaminase (AMPDA)

Row | SMILES | Ki [µM]
1 | CCCCCCCCn1cnc2c1N=CNCC2O (stereo unspecified) [3-Octyl-3,6,7,8-tetrahydro-imidazo[4,5-d][1,3]diazepin-8-ol 0.25H2O] | 18
2 | O=C(O)CCCCCCCn1cnc2c1N=CNCC2O (stereo unspecified) [8-(8-Hydroxy-7,8-dihydro-6H-imidazo[4,5-d][1,3]diazepin-3-yl)-octanoic acid] | 8
3 | N#CCCCCCCn1cnc2c1N=CNCC2O (stereo unspecified) [7-(8-Hydroxy-7,8-dihydro-6H-imidazo[4,5-d][1,3]diazepin-3-yl)-heptanenitrile] | 170
4 | CCCCCCCn1cnc2c1N=CNCC2O (stereo unspecified) [3-Heptyl-3,6,7,8-tetrahydro-imidazo[4,5-d][1,3]diazepin-8-ol] | 10
5 | COC(=O)CCCCCCCn1cnc2c1N=CNCC2O (stereo unspecified) [8-(8-Hydroxy-7,8-dihydro-6H-imidazo[4,5-d][1,3]diazepin-3-yl)-octanoic acid methyl ester] | 20
6 | O=C(O)CCCOCn1cnc2c1N=CNCC2O (stereo unspecified) [Sodium; 4-(8-hydroxy-7,8-dihydro-6H-imidazo[4,5-d][1,3]diazepin-3-ylmethoxy)-butyrate H2O] | 85
